Assay results taken from the supplement of paper PMC4862054.

The compounds below were run on HCC1937 (assay: normalised response (% of control), CellTox Green; higher = less cell death (100 = DMSO, 0 = benzethonium chloride kill control)). Details: incubation time: 72 h.
How it was run: (§1)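 Each value is the plate-normalised signal at one concentration of the series. Breast cancer cell lines (20 µl suspension) were incubated 72 h in 384-well plates with compound at 5 concentrations in 10-fold steps over a compound-specific 10,000-fold range. CellTox Green and then CellTiter-Glo were read, and each plate was scaled to 0.1 % DMSO (100) and a positive kill control (0).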

SMILES | normalised response [%]
COc1cc2nccc(Oc3ccc(NC(=O)Nc4cc(C)on4)c(Cl)c3)c2cc1OC [Tivozanib] (10000 nM) | 111
CC(=O)Nc1cccc(-n2c(=O)n(C3CC3)c(=O)c3c(Nc4ccc(I)cc4F)n(C)c(=O)c(C)c32)c1 [Trametinib] (250 nM) | 110
CC[C@H](C)C(=O)O[C@H]1C[C@H](O)C=C2C=C[C@H](C)[C@H](CC[C@@H](O)C[C@@H](O)CC(=O)O)[C@H]21 [Pravastatin] (10000 nM) | 96.1

These compounds were tested on HDQ-P1 in the same assay as above. Details: incubation time: 72 h.
How it was run: as §1

SMILES | normalised response [%]
O=C(/C=C/c1cccnc1)NCCCCC1CCN(C(=O)c2ccccc2)CC1 [Daporinad] (1000 nM) | 108
COc1cc2nccc(Oc3ccc(NC(=O)Nc4cc(C)on4)c(Cl)c3)c2cc1OC [Tivozanib] (10000 nM) | 93.9
CC(=O)Nc1cccc(-n2c(=O)n(C3CC3)c(=O)c3c(Nc4ccc(I)cc4F)n(C)c(=O)c(C)c32)c1 [Trametinib] (250 nM) | 82.9
CC[C@H](C)C(=O)O[C@H]1C[C@H](O)C=C2C=C[C@H](C)[C@H](CC[C@@H](O)C[C@@H](O)CC(=O)O)[C@H]21 [Pravastatin] (10000 nM) | 97.2

Each compound was assayed on Hs578T in the same assay as above. Details: incubation time: 72 h.
How it was run: as §1

SMILES | normalised response [%]
O=C(/C=C/c1cccnc1)NCCCCC1CCN(C(=O)c2ccccc2)CC1 [Daporinad] (1000 nM) | 73.1
COc1cc2nccc(Oc3ccc(NC(=O)Nc4cc(C)on4)c(Cl)c3)c2cc1OC [Tivozanib] (10000 nM) | 21.6
CC(=O)Nc1cccc(-n2c(=O)n(C3CC3)c(=O)c3c(Nc4ccc(I)cc4F)n(C)c(=O)c(C)c32)c1 [Trametinib] (250 nM) | 118
CC[C@H](C)C(=O)O[C@H]1C[C@H](O)C=C2C=C[C@H](C)[C@H](CC[C@@H](O)C[C@@H](O)CC(=O)O)[C@H]21 [Pravastatin] (10000 nM) | 115

The compounds below were run on MCF-10A in the same assay as above. Details: incubation time: 72 h.
How it was run: as §1

SMILES | normalised response [%]
O=C(/C=C/c1cccnc1)NCCCCC1CCN(C(=O)c2ccccc2)CC1 [Daporinad] (1000 nM) | 93.1
COc1cc2nccc(Oc3ccc(NC(=O)Nc4cc(C)on4)c(Cl)c3)c2cc1OC [Tivozanib] (10000 nM) | 91.7
CC(=O)Nc1cccc(-n2c(=O)n(C3CC3)c(=O)c3c(Nc4ccc(I)cc4F)n(C)c(=O)c(C)c32)c1 [Trametinib] (250 nM) | 60.7
CC[C@H](C)C(=O)O[C@H]1C[C@H](O)C=C2C=C[C@H](C)[C@H](CC[C@@H](O)C[C@@H](O)CC(=O)O)[C@H]21 [Pravastatin] (10000 nM) | 26.1

What follows are compounds tested on MDA-MB-231 in the same assay as above. Details: incubation time: 72 h.
How it was run: as §1

SMILES | normalised response [%]
O=C(/C=C/c1cccnc1)NCCCCC1CCN(C(=O)c2ccccc2)CC1 [Daporinad] (1000 nM) | 117
COc1cc2nccc(Oc3ccc(NC(=O)Nc4cc(C)on4)c(Cl)c3)c2cc1OC [Tivozanib] (10000 nM) | 77.7
CC(=O)Nc1cccc(-n2c(=O)n(C3CC3)c(=O)c3c(Nc4ccc(I)cc4F)n(C)c(=O)c(C)c32)c1 [Trametinib] (250 nM) | 63.1
CC[C@H](C)C(=O)O[C@H]1C[C@H](O)C=C2C=C[C@H](C)[C@H](CC[C@@H](O)C[C@@H](O)CC(=O)O)[C@H]21 [Pravastatin] (10000 nM) | 54.3

These compounds were tested on MDA-MB-436 in the same assay as above. Details: incubation time: 72 h.
How it was run: as §1

SMILES | normalised response [%]
O=C(/C=C/c1cccnc1)NCCCCC1CCN(C(=O)c2ccccc2)CC1 [Daporinad] (1000 nM) | 97.3
COc1cc2nccc(Oc3ccc(NC(=O)Nc4cc(C)on4)c(Cl)c3)c2cc1OC [Tivozanib] (10000 nM) | 104
CC(=O)Nc1cccc(-n2c(=O)n(C3CC3)c(=O)c3c(Nc4ccc(I)cc4F)n(C)c(=O)c(C)c32)c1 [Trametinib] (250 nM) | 113
CC[C@H](C)C(=O)O[C@H]1C[C@H](O)C=C2C=C[C@H](C)[C@H](CC[C@@H](O)C[C@@H](O)CC(=O)O)[C@H]21 [Pravastatin] (10000 nM) | -63.1

What follows are compounds tested on MDA-MB-453 in the same assay as above. Details: incubation time: 72 h.
How it was run: as §1

SMILES | normalised response [%]
O=C(/C=C/c1cccnc1)NCCCCC1CCN(C(=O)c2ccccc2)CC1 [Daporinad] (1000 nM) | 99.5
COc1cc2nccc(Oc3ccc(NC(=O)Nc4cc(C)on4)c(Cl)c3)c2cc1OC [Tivozanib] (10000 nM) | 104
CC(=O)Nc1cccc(-n2c(=O)n(C3CC3)c(=O)c3c(Nc4ccc(I)cc4F)n(C)c(=O)c(C)c32)c1 [Trametinib] (250 nM) | 105
CC[C@H](C)C(=O)O[C@H]1C[C@H](O)C=C2C=C[C@H](C)[C@H](CC[C@@H](O)C[C@@H](O)CC(=O)O)[C@H]21 [Pravastatin] (10000 nM) | 94.4

What follows are compounds tested on MDA-MB-468 in the same assay as above. Details: incubation time: 72 h.
How it was run: as §1

SMILES | normalised response [%]
O=C(/C=C/c1cccnc1)NCCCCC1CCN(C(=O)c2ccccc2)CC1 [Daporinad] (1000 nM) | 49.6
COc1cc2nccc(Oc3ccc(NC(=O)Nc4cc(C)on4)c(Cl)c3)c2cc1OC [Tivozanib] (10000 nM) | 134
CC(=O)Nc1cccc(-n2c(=O)n(C3CC3)c(=O)c3c(Nc4ccc(I)cc4F)n(C)c(=O)c(C)c32)c1 [Trametinib] (250 nM) | 96
CC[C@H](C)C(=O)O[C@H]1C[C@H](O)C=C2C=C[C@H](C)[C@H](CC[C@@H](O)C[C@@H](O)CC(=O)O)[C@H]21 [Pravastatin] (10000 nM) | 21.1

Each compound was assayed on MFM-223 in the same assay as above. Details: incubation time: 72 h.
How it was run: as §1

SMILES | normalised response [%]
O=C(/C=C/c1cccnc1)NCCCCC1CCN(C(=O)c2ccccc2)CC1 [Daporinad] (1000 nM) | 88.1
COc1cc2nccc(Oc3ccc(NC(=O)Nc4cc(C)on4)c(Cl)c3)c2cc1OC [Tivozanib] (10000 nM) | 93.8
CC(=O)Nc1cccc(-n2c(=O)n(C3CC3)c(=O)c3c(Nc4ccc(I)cc4F)n(C)c(=O)c(C)c32)c1 [Trametinib] (250 nM) | 101
CC[C@H](C)C(=O)O[C@H]1C[C@H](O)C=C2C=C[C@H](C)[C@H](CC[C@@H](O)C[C@@H](O)CC(=O)O)[C@H]21 [Pravastatin] (10000 nM) | 63.1

The compounds below were run on BT-474 (assay: normalised response (% of control), CellTiter-Glo; higher = more viable cells (100 = DMSO, 0 = benzethonium chloride kill control)). Details: incubation time: 72 h.
How it was run: as §1

SMILES | normalised response [%]
O=C(/C=C/c1cccnc1)NCCCCC1CCN(C(=O)c2ccccc2)CC1 [Daporinad] (1000 nM) | 19.9
COc1cc2nccc(Oc3ccc(NC(=O)Nc4cc(C)on4)c(Cl)c3)c2cc1OC [Tivozanib] (10000 nM) | 50.3
